US20230302036A1, “COMPOSITIONS FOR TREATMENT OF SPINAL MUSCULAR ATROPHY” (priority 2020, published 2023)
Oligonucleotides are written 5' to 3', each unit as a sugar letter and its base; * is a phosphorothioate linkage, no mark a phosphodiester; rarer units and linkages stand in square brackets, end groups in braces. Plain capitals give the bases only. e = 2'-O-(2-methoxyethyl) (MOE); [5mC] = 5-methylcytosine

Key:
SMA = conditions: VPA plus carnitine; cited from earlier work
[1] = system: H3K27 trimethylation over the SMN2 gene; assay: ChIP-qPCR of H3K27 trimethylation over the SMN2 gene in HEK293T cells; type: cell-based, human; conditions: ASO1 transfection
Experimental: FIGS. 10A-10D show control experiments for the opposing roles of ASO1 on chromatin and splicing. […] Top: control Western blot for efficient expression of the c-Myc-SMN fusion protein encoded by plasmid pcDNA3.1+SMN1mycHIS (Addgene, cat.# 71687) using anti-tubulin (tub.) as loading control. Bottom: SMN2 E7 RT-PCR of cells co-transfected with ASO1 and plasmid. […] Distribution of these histone marks was assessed by ChIP-qPCR, with amplicons mapping near the numbered exons (E) and introns (i). Three independent immunoprecipitation replicates were conducted per experiment. Data are represented as mean ± S.D. (n = 5; in all cases p was much higher than 0.05, two-tailed Student’s t test). […] Top: control Western blot for efficient expression of the GFPRNaseH fusion protein encoded by plasmid pEGFP-RNASEH1 (Addgene, cat.# 108699), using anti-actin (act.) as loading control. Bottom: SMN2 E7 RT-PCR of cells co-transfected with ASO1 and the RNase H plasmid. […] Top: control Western blot for efficient AGO1 knockdown using anti-tubulin (tub.) as loading control. […]
Approximately 2×10^6 HEK293T cells per sample were treated for 10 min in 1% (v/v) formaldehyde at room temperature to crosslink protein-DNA complexes. […] Immunoprecipitated DNA (1.5 µl) and serial dilutions of the 10% input DNA (1:4, 1:20, 1: 100, and 1:500) were analyzed by SYBR-Green real-time qPCR.

[2] = system: H3K9me2 along SERF1A, MYOD, GAPDH; assay: Specificity control ChIP-qPCR of H3K9me2 on SERF1A, MYOD and GAPDH in HEK293T cells; type: cell-based, human
Experimental: FIGS. 6A-6D show antisense oligonucleotides and their effects on chromatin. […] Uppercase, exonic nucleotide sequence. Lowercase, intronic sequences. Upstream highlight, binding site for ASO1. Downstream highlight, binding site for ASO2. Levels of H3K9me2 deposition along small EDRK-rich factor 1A (SERF1A, upstream of SMN2) (FIG. 6B), Myoblast Determination Protein (MYOD) (FIG. 6C), and Glyceraldehyde 3-phosphate dehydrogenase (GAPDH) (FIG. 6D), were assessed by ChIP-qPCR in HEK293T cells. Data represented as mean ± S.D. (n = 4, *p < 0.05, two-tailed Student’s t test).
Approximately 2×10^6 HEK293T cells per sample were treated for 10 min in 1% (v/v) formaldehyde at room temperature to crosslink protein-DNA complexes. Crosslinking was stopped with glycine at a final concentration of 125 mM. Cells were washed twice with cold PBS and swelled on ice for 10 min in 25 mM HEPES pH 8, 1.5 mM MgCl2, 10 mM KCl, 0.1% NP-40, 1 mM DTT and 1× protease inhibitor cocktail set III (Calbiochem). Following Dounce homogenization, the nuclei were collected and resuspended in 1 ml sonication buffer (50 mM HEPES pH 8, 140 mM NaCl, 1 mM EDTA, 0.1% sodium deoxycholate, 0.1% SDS and 1× protease inhibitor cocktail). […] Immunoprecipitated DNA (1.5 µl) and serial dilutions of the 10% input DNA (1:4, 1:20, 1: 100, and 1:500) were analyzed by SYBR-Green real-time qPCR.

In the case of `CCCC(CCC)C(=O)O` [VPA, valproic acid], the “clinical effectiveness in SMA” value (SMA) is given as “failed to demonstrate effectiveness”.
With “ASO1: 5′-ATTCACTTTCATAATGCTGG-3′ 2′-O-methoxyethyl-modified oligonucleotide with phosphorothioate backbone and all 5-methyl cytosines; nusinersen variant with 2-nucleotide extension (antisense eA*eT*eT*e[5mC]*eA*e[5mC]*eT*eT*eT*e[5mC]*eA*eT*eA*eA*eT*eG*e[5mC]*eT*eG*eG)” the “H3K27 trimethylation over the SMN2 gene” value [1] was “not affected” and the “H3K9 dimethylation in control genes (same TAD: SERF1A; outside TAD: MYOD, GAPDH)” value [2] was “neither ASO1 nor ASO2 promoted H3K9 dimethylation”.
